Tests used:
rats = conditions: oral administration to rats, cited from earlier work
Sarcoma 180 cancer cells = assay: Determination of Cancer Growth Inhibitory Effect (Sarcoma 180 solid cancer in ICR mice); assay type: in vivo; conditions: Sarcoma 180 subcutaneous graft, 30 mg/kg per day intraperitoneally for 10 days, tumor weight after 5 weeks
Method: (§1) First, 1 wt % aqueous solutions of the respective polysaccharides obtained in the above Preparation Examples were prepared. A cationic ion exchange resin was added to each solution to convert the counter ions of carboxyl group of glucuronic acid residue in the polysaccharide into hydrogen ions, and then the solution was neutralized with sodium hydroxide to replace the counter ions with sodium ions, then passed through a 0.2 μm-opening membrane filter and freeze-dried. The resulting polysaccharide preparations were subjected to the following tests.

IL-6 = assay: Measurement of Interleukin (IL-6) inducibility; assay type: in vivo; conditions: serum 90 minutes after injection, 100 μg/0.2 ml intravenously, MDP-primed C3H/He mice; average value ± standard deviation
Method: as §1
(§2) These mice were left under observation for anaphylaxis-like reaction and sudden death. After 90 minutes from the injection, blood was collected from the surviving mice to determine TNF and IL-6 activities in the serum. TNF activity was calculated on the basis of the ratio of activity of the actinomycin D-treated L-929 cells to that of rHuTNF (human recombination TNF) used as control, with the killing action of the said L-929 cells being taken as index, and indicated by ng/ml. In the case of IL-6 activity, the IL-6 dependent MH60.BSF2 cell growth stimulating action was taken as index, and the IL-6 activity was calculated on the basis of the calibration curves obtained from the test of IL-6 and control rHuIL-6, and indicated by U/ml.

TNF = assay: Measurement of Tumor Necrosis Factor (TNF) inducibility; assay type: in vivo; conditions: serum 90 minutes after injection, 100 μg/0.2 ml intravenously, MDP-primed C3H/He mice; average value ± standard deviation
Method: as §1, §2

[1] = tested on: myeloma cell strain NS-1/Z; assay: Determination of Cytotoxic T Cell (CTL) Inducibility; assay type: in vivo, BALB/c mouse (target cells); C3H mice (effector cells); conditions: 20 mg/kg/day, subcutaneous, four times, relative to physiological saline control
Method: as §1
The following test was conducted on the C3H mice and BALB/c mice which are different in H-2 haplotype.
The spleen lymphocytes (2×10^7) of the BALB/c mice were immunized in the abdominal cavities of the C3H mice (4 mice per group: N=4). Each of the test specimens shown in Table 5 was given subcutaneously to the back of each of the said C3H mice at a dose of 50 mg/kg or 20 mg/kg, once a day, four times in all, from the day before immunization till 2 days after immunization. As control, physiological saline was used instead of the test specimens. After 9 days, the spleen lymphocyte suspension was collected from the C3H mice. This lymphocyte suspension contained the cytotoxic T cells (hereinafter referred to as effector cells and abbreviated as E). Then, 10^4 cells of myeloma cell strain NS-1/Z (hereinafter abbreviated as T) derived from the BALB/c mouse into which β-galactosidase (β-gal) of Escherichia coli had been introduced, were mixed as target cells with the effector cells so that the E/T ratio would become 30, 60 or 120, and the mixture was kept in 0.2 ml of a medium RPMI-1640 at 37° C. for 4 hours. The activity of β-gal released into the supernatant by destruction of the target cells was measured, and the cytotoxicity by CTL was calculated from the following equation. [formula] A: released β-gal activity B: naturally released β-gal activity (enzyme release observed when no effector cells are present)
C: overall β-gal activity (T used is dissolved in 0.0425% Triton-X100 and the overall enzyme activity is measured.) [formula]

C3H/He mice = assay: Observation for anaphylaxis-like reaction and sudden death in MDP-primed mice; assay type: in vivo; conditions: 100 μg/0.2 ml intravenously, 4 hours after MDP
Method: as §1, §2

Compound: O=P1(N(CCCl)CCCl)NCCCO1 (stereo not shown) [Cyclophosphide]
- LD50 (female) (rats; female): 118 mg/kg
- LD50 (male) (rats; male): 100 mg/kg

Compound: Lentinan
- Cancer cell growth inhibition percentage (Sarcoma 180 cancer cells): 100%

Compound: Schizophyllan
- IL-6 (IL-6): 14.1 ± 2.2 U/ml
- TNF (TNF): 0 ± 0 ng/mL
- Immunoactivating activity, E/T = 30 ([1]; E/T = 30): 5.5
- Immunoactivating activity, E/T = 60 ([1]; E/T = 60): 2.0
- Immunoactivating activity, E/T = 120 ([1]; E/T = 120): 1.7
- Anaphylaxis-like reaction (C3H/He mice): 0/3
- Sudden death (C3H/He mice): 0/3
